Source: PMC11390726, “Automated design of multi-target ligands by generative deep learning” (Nature Communications, 2024)
pEC50, pIC50: −log10 of the molar value.

Columns and labels:
FFAR1 = molecular target: T1, FFAR1 (Homo sapiens, UniProt O14842); design: method as in earlier work; settings: fine-tuning set; BindingDB; read-out: potency on target (EC50 for FFAR1); cited from earlier work
T1 construct: expressed in transfected cells

sEH [1] = test system: sEH; design: method as in earlier work; settings: fine-tuning set; BindingDB; read-out: potency on target (IC50 for sEH); cited from earlier work
FXR [2] = test system: FXR; design: method as in earlier work; settings: fine-tuning set; BindingDB; read-out: potency on target (EC50 for FXR); cited from earlier work
FXR [3] = molecular target: T2, FXR (Homo sapiens, UniProt Q96RI1); assay: Gal4-hybrid reporter gene assay FXR; format: cell-based; settings: mean, n ≥ 3
T2 construct: expressed in transfected cells; host or cells: HEK293T
T2 sequence (Q96RI1 262-486 limits assumed): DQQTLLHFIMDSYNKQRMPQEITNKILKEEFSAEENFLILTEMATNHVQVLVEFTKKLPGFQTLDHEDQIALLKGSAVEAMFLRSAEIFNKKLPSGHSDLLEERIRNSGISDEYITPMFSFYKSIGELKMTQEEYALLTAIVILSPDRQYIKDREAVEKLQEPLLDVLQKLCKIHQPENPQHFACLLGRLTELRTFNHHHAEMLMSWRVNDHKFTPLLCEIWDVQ
Protocol: The dual ligand candidates were characterized in functional assays for the targets of interest using cellular Gal4-hybrid reporter gene assays[43] to determine FXR, THRβ and PPARδ modulation and an enzyme activity assay[44] with the fluorogenic substrate PHOME to test sEH inhibition (Table 1).
After 24 h, the medium was changed to Opti-MEM without supplements. Transient transfection was performed using Lipofectamine LTX reagent (Invitrogen, Carlsbad, CA, USA) according to the manufacturer’s protocol with pFR-Luc (100 ng/well) as reporter plasmid, pRL-SV40 (2 ng/well) for normalization of transfection efficiency and cell growth, and one pFA-CMV-hNR-LBD clone coding for the hinge region and ligand binding domain (LBD) of the NR of interest. Five hours after transfection, the cells were incubated with Opti-MEM supplemented with penicillin (100 U/mL) and streptomycin (100 µg/mL), additionally containing 0.1% DMSO and the respective test compound or 0.1% DMSO alone as untreated control. After overnight (14–16 h) incubation, luminescence was measured using the Dual-Glo® Luciferase Assay System (Promega, Madison, WI, USA) according to the manufacturer’s protocol with a Tecan Spark® 10 M multimode microplate reader. Relative light units (RLU) for normalization of transfection efficiency and cell growth were calculated by dividing firefly luminescence by renilla luminescence and multiplication by 1000. Fold activation was obtained by dividing the mean RLU of a test compound at a respective concentration by the mean RLU of the untreated control. All samples were tested in duplicates in at least three biologically independent experiments. For dose response curve fitting and calculation of the EC50/IC50 values, the equation “[Agonist]/[Inhibitor] vs. response – Variable slope (four parameters)” was used in GraphPad Prism 7.

sEH [4] = molecular target: T3, sEH (Homo sapiens, UniProt P34913); assay: sEH enzyme activity assay with fluorogenic substrate PHOME; format: biochemical; settings: mean, n ≥ 3
T3 construct: His tag (inferred from HisTrap purification with imidazole elution); made in house; own inference
T3 sequence (P34913 1-555): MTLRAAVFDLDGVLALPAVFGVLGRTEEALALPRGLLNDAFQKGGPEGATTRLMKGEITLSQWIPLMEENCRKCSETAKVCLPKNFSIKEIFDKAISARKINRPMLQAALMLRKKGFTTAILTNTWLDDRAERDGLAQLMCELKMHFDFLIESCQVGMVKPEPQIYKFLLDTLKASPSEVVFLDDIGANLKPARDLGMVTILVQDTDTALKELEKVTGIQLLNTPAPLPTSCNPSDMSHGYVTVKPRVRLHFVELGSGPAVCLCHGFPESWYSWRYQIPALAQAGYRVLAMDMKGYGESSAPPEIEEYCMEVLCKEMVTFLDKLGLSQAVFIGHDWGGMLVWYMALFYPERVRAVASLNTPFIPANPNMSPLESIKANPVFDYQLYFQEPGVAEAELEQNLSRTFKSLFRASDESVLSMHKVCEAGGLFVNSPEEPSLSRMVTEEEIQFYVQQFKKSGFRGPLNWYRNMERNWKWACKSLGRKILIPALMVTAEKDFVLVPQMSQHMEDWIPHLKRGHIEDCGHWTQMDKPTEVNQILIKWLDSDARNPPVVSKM
From the text: (§1) Compound 7 was originally designed with tert-butyloxy motif which was replaced by tert-butyl for improved chemical stability. The dual ligand candidates were characterized in functional assays for the targets of interest using cellular Gal4-hybrid reporter gene assays[43] to determine FXR, THRβ and PPARδ modulation and an enzyme activity assay[44] with the fluorogenic substrate PHOME to test sEH inhibition (Table 1). In vitro characterization of the CLM designed dual FXR/sEH modulators 1–3 confirmed engagement of both targets by all three compounds with sub-micromolar to low micromolar potencies. […] All designed PPARδ/sEH modulators (7–9) were confirmed as dual ligands of the intended targets. 7 emerged as remarkably potent sEH inhibitor endowed with micromolar PPARδ agonist activity.
Soluble epoxide hydrolase (sEH) was purified as described by Hahn et al.[68] and Lukin et al.[69], respectively. Protein expression was carried out in 500 ml ZYP5052 autoinduction medium containing Kanamycin (100 mg/L) with lactose uptake-dependent induction. The fermentation procedure started at 37 °C and 200 rpm until the OD600 reached approximately 1.0. Then the temperature was reduced to 16 °C. After 24–36 h the cells (OD600 ≈ 15.0) were harvested by centrifugation at 5000 × g (4 °C, 20 min). Pellets were resuspended in a resuspension buffer containing Tris (50 mM), NaCl (0.5 M) and MgCl2 (10 mM) at pH 8 and sonicated twice for 15 s on ice. The sonicated suspension was centrifuged (18,000 × g, 30 min, 4 °C) and the supernatant was ultracentrifuged (100,000 × g, 1 h 10 min, 4 °C). The ultracentrifugation supernatant was loaded on a 5 ml HisTrap® FF (GE Healthcare, München, Germany) column at a flow rate of 2 ml/min and washed with washing buffer containing Tris (50 mM), NaCl (0.5 M), MgCl2 (10 mM), imidazole (20 mM) and DTT (3 mM) at pH 8, and eluted at 120 mM imidazole. The fractions containing hsEH after SDS-PAGE fraction analysis were pooled. The identity of hsEH was confirmed by Western Blotting and hsEH hydrolase activity assay. The inhibitory potency of the compounds was determined using a fluorescence-based enzyme activity assay in which PHOME (3-phenyl-cyano(6-methoxy-2-naphthalenyl)methylester-2-oxiraneacetic acid) is metabolized by sEH hydrolase towards a fluorescent naphthalene aldehyde. Dilution series of the compounds were incubated for 30 min with recombinant sEH (final protein concentration 3 nM). Subsequently, the fluorogenic substrate PHOME at final concentration of 50 μM was added, and the fluorescence was measured every minute for 45 min using a Tecan plate reader (ex: 360 nm, em: 465 nm; bandwidth 35 nm). Inhibition in percent was plotted against the logarithmic test compound concentration and IC50-values were calculated using the “log(Inhibitor) vs. Response – Variable slope (four parameters)” equation in GraphPad Prism 7.

THRβ = molecular target: T4, THRβ (Homo sapiens, UniProt P10828); assay: Gal4-hybrid reporter gene assay THRβ; format: cell-based; settings: for THRβ agonism: at non-toxic concentrations
T4 construct: expressed in transfected cells; host or cells: HEK293T
T4 sequence (P10828 217-461 limits assumed): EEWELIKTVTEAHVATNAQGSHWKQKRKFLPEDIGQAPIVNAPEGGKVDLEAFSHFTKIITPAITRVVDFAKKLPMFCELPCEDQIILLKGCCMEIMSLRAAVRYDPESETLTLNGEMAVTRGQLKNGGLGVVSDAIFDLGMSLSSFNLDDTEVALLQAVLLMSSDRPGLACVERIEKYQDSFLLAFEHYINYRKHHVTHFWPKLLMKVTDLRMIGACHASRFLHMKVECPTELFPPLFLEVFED
From the text: as §1
HEK293T cells (ATCC, CRL-1573) were cultured in Dulbecco’s modified eagle medium (DMEM), high glucose, supplemented with 10% FCS, sodium pyruvate (1 mM), penicillin (100 U/mL), and streptomycin (100 µg/mL) to 70–80% confluence at 37 °C and 5% CO2 and seeded in clear 96-well plates with a density of 40,000 cells/well. After 24 h, the medium was changed to Opti-MEM without supplements. Transient transfection was performed using Lipofectamine LTX reagent (Invitrogen, Carlsbad, CA, USA) according to the manufacturer’s protocol with pFR-Luc (100 ng/well) as reporter plasmid, pRL-SV40 (2 ng/well) for normalization of transfection efficiency and cell growth, and one pFA-CMV-hNR-LBD clone coding for the hinge region and ligand binding domain (LBD) of the NR of interest. Five hours after transfection, the cells were incubated with Opti-MEM supplemented with penicillin (100 U/mL) and streptomycin (100 µg/mL), additionally containing 0.1% DMSO and the respective test compound or 0.1% DMSO alone as untreated control. After overnight (14–16 h) incubation, luminescence was measured using the Dual-Glo® Luciferase Assay System (Promega, Madison, WI, USA) according to the manufacturer’s protocol with a Tecan Spark® 10 M multimode microplate reader. Relative light units (RLU) for normalization of transfection efficiency and cell growth were calculated by dividing firefly luminescence by renilla luminescence and multiplication by 1000. Fold activation was obtained by dividing the mean RLU of a test compound at a respective concentration by the mean RLU of the untreated control. All samples were tested in duplicates in at least three biologically independent experiments. For dose response curve fitting and calculation of the EC50/IC50 values, the equation “[Agonist]/[Inhibitor] vs. response – Variable slope (four parameters)” was used in GraphPad Prism 7. The following pFA-CMV-hNR-LBD clones and reference ligands were used: THRβ (pFA-CMV-hTHRβ-LBD[71], 1 µM T3), PPARδ (pFA-CMV-hPPARδ-LBD[72], 1 µM L-165,041), FXR (pFA-CMV-hFXR-LBD[73], 1 µM GW4064).

[5] = Gal4-hybrid reporter gene assay, mean, n ≥ 3

T1 sequence (O14842 whole entry): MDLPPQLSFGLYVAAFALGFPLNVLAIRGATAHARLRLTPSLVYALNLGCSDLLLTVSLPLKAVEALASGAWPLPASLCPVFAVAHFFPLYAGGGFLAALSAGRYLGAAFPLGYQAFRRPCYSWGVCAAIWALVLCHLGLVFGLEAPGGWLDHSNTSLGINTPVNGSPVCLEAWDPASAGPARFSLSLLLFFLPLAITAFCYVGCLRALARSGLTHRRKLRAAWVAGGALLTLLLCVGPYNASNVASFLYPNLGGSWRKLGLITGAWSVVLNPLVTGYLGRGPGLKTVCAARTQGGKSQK

Structure (SMILES): CCOC(CC(=O)O)c1ccc(OC2CCc3c(Cl)cccc32)cc1 (stereo not shown)
- pEC50 (FFAR1): 8.30

Structure (SMILES): CC#CC(CC(=O)O)c1ccc(NC(=O)C(=O)Nc2cccc(C(C)(C)C)c2)cc1 (stereo not shown)
- pEC50 (FFAR1): 8.40

Structure (SMILES): CC#CC(CC(=O)O)c1ccc(OCc2cccc(CN(Cc3ccsc3)C3CCOCC3)c2)cc1 (stereo not shown)
- pEC50 (FFAR1): 8.10

Structure (SMILES): CC(C)(C)N1CCOC(COc2ccc(NC(=O)NC3CCCCC3)cc2)C1 (stereo not shown)
- pIC50 (sEH [1]): 7.11

Structure (SMILES): CC(C(=O)O)C(c1ccc2c(c1)OC(C1CCN(C(C)c3cc(F)ccc3OC(F)(F)F)CC1)CC2)C1CC1 (stereo not shown)
- pEC50 (FFAR1): 8.70

Structure (SMILES): CC(C)c1cnn(-c2c(Cl)cccc2Cl)c1COc1ccc(C=Cc2cccc(C(=O)O)c2)c(Cl)c1
- pEC50 (FXR [2]): 7.70

Structure (SMILES): CC(C)c1noc(C2CCN(C(=O)NC3CC3c3ccccc3)CC2)n1 (stereo not shown)
- pIC50 (sEH [1]): 8.22

Structure (SMILES): CC(C)c1onc(-c2c(Cl)cccc2Cl)c1COc1ccc2sc(-c3cccc(C(=O)O)c3)cc2c1
- pEC50 (FXR [2]): 7.49

Structure (SMILES): CC(C)n1nc(C(=O)O)cc1C1CC1c1ccc(OCc2c(-c3c(Cl)cccc3Cl)noc2C2CC2)cc1Cl (stereo not shown)
- pEC50 (FXR [2]): 8.40

Structure (SMILES): CN(Cc1cccc(C(=O)O)c1)c1ccc(OCc2c(-c3c(Cl)cccc3Cl)noc2C2CC2)nc1C(F)(F)F
- pEC50 (FXR [2]): 8.05

Structure (SMILES): COc1ccc(CNc2c(-c3cc(Cl)ccn3)nc3ccc(Cl)cn23)cc1
- pEC50 (FXR [2]): 9.52

Structure (SMILES): COc1ccc(F)c(C2CCC(COc3cccc(C(C4CC4)C(C)C(=O)O)c3)CC2)c1 (stereo not shown)
- pEC50 (FFAR1): 8.70

Structure (SMILES): Cc1cccc(C)c1OCc1noc(C(C)C)c1COc1ccc(C=Cc2cccc(C(=O)O)c2)c(Cl)c1
- pEC50 (FXR [2]): 7.25

Structure (SMILES): O=C(NCc1ccc(Br)cc1OC(F)(F)F)c1ccc(OCCC(F)(F)F)nc1
- pIC50 (sEH [1]): 7.92

Structure (SMILES): O=C(O)CCc1ccc(OC2CCN(C(=O)NC3C(c4ccccc4)C3c3ccccc3)CC2)cc1 (stereo not shown)
- pIC50 (sEH [1]): 8.70

Structure (SMILES): O=C(O)c1ccc2nc(N3CCCC(OCc4c(-c5ccccc5OC(F)(F)F)noc4C4CC4)CC3)sc2c1 (stereo not shown)
- pEC50 (FXR [2]): 8.15

Structure (SMILES): CC(C)(C)c1ccc(CNC(=O)c2ccc(C(=O)O)cc2)cc1 [Compound 1]
- pEC50 (FXR [3]): 6.43
- pIC50 (sEH [4]): 5.39

Structure (SMILES): O=C(O)c1ccc(CNC(=O)c2ccc(-c3ccccc3)cc2)cc1 [Compound 2]
- pEC50 (FXR [3]): 6.36
- pIC50 (sEH [4]): 5.09

Structure (SMILES): O=C(O)c1ccc(-c2ccc(C(=O)NCc3c(Cl)cccc3Cl)cc2)cc1 [Compound 3]
- FXR: fold act. at 50 µM (FXR [3]; at 50 µM): 3.4 fold
- pIC50 (sEH [4]): 4.68

Structure (SMILES): CC(C)c1onc(-c2c(Cl)cccc2Cl)c1COc1ccc(C(=O)O)cc1 [Compound 4]
- THRβ: activity (THRβ; [5]): inactive
- THRβ agonism (THRβ): no detectable

Structure (SMILES): CC(C)c1onc(-c2c(Cl)cccc2Cl)c1COc1ccc(CC(=O)O)cc1 [Compound 5]
- pEC50 (FXR [3]): 4.96
- THRβ: activity (THRβ; [5]): inactive
- THRβ agonism (THRβ): no detectable

Structure (SMILES): CC(C)c1onc(-c2c(Cl)cccc2Cl)c1COc1ccc(Cc2ccc(OCC(=O)O)cc2)cc1 [Compound 6]
- pEC50 (FXR [3]): 6.00
- THRβ: fold act. at 15 µM (THRβ; Gal4-hybrid reporter gene assay, at 15 µM, mean, n ≥ 3): 5 fold
- THRβ agonism (THRβ): weak
